Laboratory results from patent US8916599B2, “1H-benz imidazole-5-carboxamides as anti-inflammatory agents” (Orexo AB, priority 2008, dated 2014).

target: T1, recombinant human mPGES-1 (Homo sapiens, UniProt O14684); experiment: mPGES-1 inhibition test (microsomes, PGH2 substrate, HTRF detection of PGE2); type: biochemical; conditions: inhibition of mPGES-1 at 10 μM
T1 construct: made in house; host or cells: Rosetta E. coli (microsomal/membrane fraction)
T1 sequence (O14684 1-152): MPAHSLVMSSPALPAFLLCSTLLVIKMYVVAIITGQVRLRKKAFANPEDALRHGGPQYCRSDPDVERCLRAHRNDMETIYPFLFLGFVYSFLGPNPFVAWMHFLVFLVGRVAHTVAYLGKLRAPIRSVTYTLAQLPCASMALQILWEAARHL
Procedure: Microsomes from Rosetta E. coli bacteria expressing recombinant human mPGES-1 is dissolved in 0.1 M KPi pH 7.4 buffer containing 2.5 mM GSH. 50 μl of the enzyme is subsequently dispensed in a 384-well plate. 0.5 μl of the inhibitor dissolved in DMSO at is thereafter added to each well and incubated for 25 minutes at room temperature. Subsequently, 2 μl of PGH2 dissolved in an appropriate solvent is added to each well and after one minute the acidified stop solution containing FeCl2 is added. 4 μl of the total volume is transferred to a separate plate and diluted 750-fold in two separate steps before HTRF detection of PGE2.
The HTRf detection is performed by the use of a commercially available kit from CisBio essentially according to the manufacturer's protocol. Briefly, 10 μl of the diluted sample is transferred to a white 384-well plate. 5 μl of d2 and 5 μl Eu3+-Cryptate labeled anti-PGE2 is added to each well containing samples by the use of a Multidrop. The plate is covered with a plastic self-adhesive film, centrifuged at 1200 rpm for 1 minute and subsequently stored at +4° C. over night.
After over night incubation the fluorescence is measured by the use of an appropriate microplate reader. The fluorescence of europium cryptate, and d2 are measured using the following excitation and emission wavelength, europium cryptate: λmax^ex=307 nm, λmax^em=620 nm and d2: λmax^ex=620 nm, λmax^em=665 nm), respectively. The extent of the specific FRET is measured as a ratio of the emission intensity at 665 nm vs. that at 620 nm. A standard curve using synthetic PGE2 is used to quantify the amount of PGE2 in unknown samples.

inhibition at 10 µM [%]	Structure (SMILES)
98	Cc1nc(NC(=O)c2ccc3c(c2)nc(Nc2c(Cl)cccc2Cl)n3C)cc2c1CCCC2 [Example 139, 2-(2,6-Dichloro-phenylamino)-1-methyl-1H-benzimidazole-5-carboxylic acid (1-methyl-5,6,7,8-tetrahydro-isoquinolin-3-yl)-amide]
100	O=C(NC1CCC(F)(F)CC1)c1cc2[nH]c(Nc3c(Cl)cccc3Cl)nc2cc1F [Example 149, 2-(2,6-Dichloro-phenylamino)-6-fluoro-3H-benzimidazole-5-carboxylic acid (4,4-difluoro-cyclohexyl)-amide]
100	O=C(NC1CCc2ccccc2C1)c1cc2[nH]c(Nc3c(Cl)cccc3Cl)nc2cc1F (stereo not shown) [Example 150, 2-(2,6-Dichloro-phenylamino)-6-fluoro-3H-benzimidazole-5-carboxylic acid (1,2,3,4-tetrahydro-naphthalen-2-yl)-amide]
100	O=C(N[C@H]1CC[C@H](C(F)(F)F)CC1)c1cc2nc(Nc3c(Cl)cccc3Cl)[nH]c2cc1F [Example 155, 2-(2,6-Dichloro-phenylamino)-6-fluoro-1H-benzimidazole-5-carboxylic acid (trans-4-trifluoromethyl-cyclohexyl)-amide]
100	Cn1c(Nc2c(Cl)cccc2Cl)nc2cc(C(=O)NC3CCC(F)(F)CC3)c(F)cc21 [Example 156, 2-(2,6-Dichloro-phenylamino)-6-fluoro-1-methyl-1H-benzimidazole-5-carboxylic acid (4,4-difluoro-cyclohexyl)-amide]
100	Cn1c(Nc2c(Cl)cccc2Cl)nc2cc(C(=O)NC3CCC(C)(C)CC3)c(F)cc21 [Example 157, 2-(2,6-Dichloro-phenylamino)-6-fluoro-1-methyl-1H-benzimidazole-5-carboxylic acid (4,4-dimethyl-cyclohexyl)-amide]
100	Cn1c(Nc2c(Cl)cccc2Cl)nc2cc(C(=O)N[C@H]3CC[C@H](C(F)(F)F)CC3)c(F)cc21 [Example 158, 2-(2,6-Dichloro-phenylamino)-6-fluoro-1-methyl-1H-benzimidazole-5-carboxylic acid (trans-4-trifluoromethyl-cyclohexyl)-amide]
98	Cn1c(Nc2c(Cl)cccc2Cl)nc2cc(C(=O)NC3CCCCC3)c(F)cc21 [Example 159, 2-(2,6-Dichloro-phenylamino)-6-fluoro-1-methyl-1H-benzimidazole-5-carboxylic acid cyclohexylamide]
98	Cn1c(Nc2c(Cl)cccc2Cl)nc2cc(C(=O)NC3COc4ccccc4C3)c(F)cc21 (stereo not shown) [Example 160, 2-(2,6-Dichloro-phenylamino)-6-fluoro-1-methyl-1H-benzimidazole-5-carboxylic acid chroman-3-ylamide]
98	O=C(N[C@H]1CC[C@H](C(F)(F)F)CC1)c1ccc2[nH]c(Nc3c(Cl)cccc3Cl)nc2c1 [Example 161, 2-(2,6-Dichloro-phenylamino)-1H-benzimidazole-5-carboxylic acid (trans-4-trifluoromethyl-cyclohexyl)-amide]
100	Cn1c(Nc2c(Cl)cccc2Cl)nc2cc(C(=O)NC3CCc4ccccc4C3)c(F)cc21 (stereo not shown) [Example 162, 2-(2,6-Dichloro-phenylamino)-6-fluoro-1-methyl-1H-benzimidazole-5-carboxylic acid (1,2,3,4-tetrahydro-naphthalen-2-yl)-amide]
100	Cn1c(Nc2c(Cl)cccc2Cl)nc2cc(C(=O)NC3CC4CCCCC4C3)c(F)cc21 (stereo not shown) [Example 163, 2-(2,6-Dichloro-phenylamino)-6-fluoro-1-methyl-1H-benzimidazole-5-carboxylic acid (octahydro-inden-2-yl)-amide]
100	Cn1c(Nc2c(Cl)cccc2Cl)nc2cc(C(=O)NC3(C)CCCCC3)c(F)cc21 [Example 164, 2-(2,6-Dichloro-phenylamino)-6-fluoro-1-methyl-1H-benzimidazole-5-carboxylic acid (1-methyl-cyclohexyl)-amide]
98	Cn1c(Nc2c(Cl)cccc2Cl)nc2cc(C(=O)NC34CC5CC(CC(C5)C3)C4)c(F)cc21 [Example 165, 2-(2,6-Dichloro-phenylamino)-6-fluoro-1-methyl-1H-benzimidazole-5-carboxylic acid adamantan-1-ylamide]

More lines, now with the values behind:

Structure (SMILES)	inhibition at 10 µM [%]
O=C(NC1CCCCC1)c1ccc2nc(Nc3c(Cl)cccc3Cl)[nH]c2c1 [Example 137, 2-(2,6-Dichloro-phenylamino)-3H-benzimidazole-5-carboxylic acid cyclohexylamide]	100
Cc1nc(NC(=O)c2cc3nc(Nc4c(Cl)cccc4Cl)[nH]c3cc2F)cc2c1CCCC2 [Example 138, 2-(2,6-Dichloro-phenylamino)-6-fluoro-1H-benzimidazole-5-carboxylic acid (1-methyl-5,6,7,8-tetrahydro-isoquinolin-3-yl)-amide]	100
CC(C)(C)CNC(=O)c1ccc2[nH]c(Nc3c(Cl)cccc3Cl)nc2c1 [Example 140, 2-(2,6-Dichloro-phenylamino)-1H-benzimidazole-5-carboxylic acid (2,2-dimethyl-propyl)-amide]	80
O=C(Nc1cc(Cl)ccn1)c1cc2[nH]c(Nc3c(Cl)cccc3Cl)nc2cc1F [Example 142, 2-(2,6-Dichloro-phenylamino)-6-fluoro-3H-benzimidazole-5-carboxylic acid (4-chloro-pyridin-2-yl)-amide]	100
O=C(Nc1cccc(Cl)c1)c1cc2[nH]c(Nc3c(Cl)cccc3Cl)nc2cc1F [Example 143, 2-(2,6-Dichloro-phenylamino)-6-fluoro-3H-benzimidazole-5-carboxylic acid (3-chloro-phenyl)-amide]	100
O=C(Nc1ccc(Br)cc1)c1cc2[nH]c(Nc3c(Cl)cccc3Cl)nc2cc1F [Example 144, 2-(2,6-Dichloro-phenylamino)-6-fluoro-3H-benzimidazole-5-carboxylic acid (4-bromo-phenyl)-amide]	97
Cc1cc2[nH]c(Nc3c(Cl)cccc3Cl)nc2cc1C(=O)Nc1ccc(Cl)c(F)c1 [Example 145, 2-(2,6-Dichloro-phenylamino)-6-methyl-1H-benzimidazole-5-carboxylic acid (4-chloro-3-fluorophenyl)-amide]	100
O=C(NC1CCc2ccccc2C1)c1ccc2nc(Nc3c(Cl)cccc3Cl)[nH]c2c1 (stereo not shown) [Example 146, 2-(2,6-Dichloro-phenylamino)-3H-benzimidazole-5-carboxylic acid (1,2,3,4-tetrahydro-naphthalen-2-yl)-amide]	97
O=C(NC1CCC(F)(F)CC1)c1ccc2nc(Nc3c(Cl)cccc3Cl)[nH]c2c1 [Example 147, 2-(2,6-Dichloro-phenylamino)-3H-benzimidazole-5-carboxylic acid (4,4-difluoro-cyclohexyl)-amide]	94
O=C(NC1COc2ccccc2C1)c1cc2[nH]c(Nc3c(Cl)cccc3Cl)nc2cc1F (stereo not shown) [Example 152, 2-(2,6-Dichloro-phenylamino)-6-fluoro-1H-benzimidazole-5-carboxylic acid chroman-3-ylamide]	95
O=C(NC1COc2ccccc2C1)c1ccc2[nH]c(Nc3c(Cl)cccc3Cl)nc2c1 (stereo not shown) [Example 153, 2-(2,6-Dichloro-phenylamino)-1H-benzimidazole-5-carboxylic acid chroman-3-ylamide]	98
